Data reported in US20040087651A1, “Monoterpene as a chemopreventive agent for regression of mammalian nervous system cell tumors, use of monoterpene for causing regression and inhibition of nervous system cell tumors, and method for administration of monoterpene perillyl alcohol” (priority 2001, published 2004).

What was measured:
human glioma A 172 cells = test: Cellular Proliferation Assay (MTT); type: cell-based
Method: (§1) a—Cell Culture: Human malignant gliomas U 87 and A 172 cells were obtained from the American Type Culture Collection (ATCC), and grown as monolayers on the at 37° C., in Dulbecco's Modified Eagle Medium supplemented with 0.2 mM nonessential amino acids, 10% (v/v) fetal calf serum, penicillin (100 UI/mL), streptomycin ([…]) and amphotericin B (Fungizone, […]). For subcultures, confluent monolayers were gently washed with Dulbecco's phosphate—buffered saline (PBS, pH 7.2), and after a short exposure to trypsin, the cells were transferred to a new bottle containing complete growth media.
(§2) Cellular Proliferation Assay: the target cells (human glioma U 87 and A 172) were cultivated in plates of 96 wells at a concentration of 5.0×10^5 cells by well. After the cellular adherence the cells were placed in multiple POH dilutions, in triplicates, having as positive control cells growing with detergent Tween 20. The negative control were cells growing without any additive. Concentrations varying from 30%, 3%, 0.03%, 0.003%, 0.0003% (v/v) were applied and after 24 hours of incubation 1.0 mg of hydrogen acceptor 3 (4,5 dimethylthiazol-2yi)-2-5 diphenyltetrazolium bromide (MTT) solution was added in each well, and the culture was incubated for additional 3 hours. […] An ELISA reader with 490 nm filter was used to read the results.

human glioma U 87 cells = test: Cellular Proliferation Assay (MTT); type: cell-based
Method: as §1, §2

glial cell C6 = test: Effect on glial cell C6 growth; type: cell-based, rats; details: various concentrations (FIG. 2)
A 172 cells = test: Studies of cell morphology; type: cell-based, human; details: POH 0,3%
Method: (§3) Studies of cell morphology:_A 172 and U 87 cells were cultivated in plates of 6 wells. After 24 hours, perillyl alcohol was added to a final concentration of 0.3% (v/v). Monolayers of cells treated with POH were photographed by an optic microscope inverted NIKON TMS, to register morphological changes induced by the treatment. All studies of cell morphology were performed at least three times to ensure accurate interpretation.

U 87 cells = test: Studies of cell morphology; type: cell-based, human; details: POH 0,3%
Method: as §3

A 172 glial cells = test: Chorioallantoic Membrane (CAM) Assay, anti-metastatic activity; type: in vivo, human; details: A 172 cells exposed to POH 0,3% to 0,03% for 2 hours prior to inoculation in chick embryo chorioallantoic membrane
Method: (§4) After determination of cell concentration applying a Neubauer Chamber, 2×10^6 cells were incubated for 2 hours at 37° C., in D-MEM medium containing concentrations varying from […] or 3% of perillyl alcohol (Sigma), prior to inoculation on CAM.
(§5) b—Chorioallantoic Membrane (CAM) Assay: seven days old fertilized specific pathogen free chick eggs were used in this study. By transillumination in a dark chamber, the egg air camera was marked on the eggshell. The following procedures were done under aseptic conditions, in the laminar chamber. An opening was made in the upper part and another in the lateral part of the eggshell, and the air camera was mechanically displaced to the upper side by applying negative pressure at the lateral opening. Both openings were sealed. In the upper part of the egg, a small window was made. On the upper CAM, the cells were inoculated, with a sterile pipette. Eggs 1, 2 and 3 received 2×10^6 cells previously treated with POH (0.03, 0.3 and 3%, respectively) diluted D-MEM medium. Egg 4 received 2×10^6 untreated cells in D-MEM medium. Egg 5 was used as negative control (no cells inoculated). The windows were sealed and the eggs were kept at 37° C. and 60% humidity, in the horizontal position, without agitation, for seven days
(§6) Opening of the eggs. […]

U 87 glial cells = test: as above; type: in vivo, human; details: U 87 cells exposed to POH 0,3% to 0,03% for 2 hours prior to inoculation in chick embryo chorioallantoic membrane
Method: as §4, §5, §6

glial cell lines = test: Inhibition of protein expression in glial cell lines; type: cell-based; details: POH treatment in glial cell lines (FIG. 10: A 172)
rats [1] = details: rat, in vivo
rats [2] = details: perillyl alcohol diet; cited from earlier work

SMILES: C=C(C)[C@@H]1CC=C(CO)CC1 [perillyl alcohol, p-metha, 1,7-diene-6-ol or 4-isopropenyl-cyclohexanecarbinol]
- proliferation of glioma cell lines (human glioma A 172 cells; POH 30%, 3%, 0,3% and 0,03%, preliminary in vitro studies): inhibits the proliferation
- cell growth (human glioma A 172 cells; various concentrations (FIG. 4)): significantly inhibited cell growth in a dose dependent manner
- proliferation of glioma cell lines (human glioma U 87 cells; U 87, POH 30%, 3%, 0,3% and 0,03%, preliminary in vitro studies): inhibits the proliferation
- cell growth (human glioma U 87 cells; U87, various concentrations (FIG. 3)): significantly inhibited cell growth in a dose dependent manner
- cell growth (glial cell C6): significantly inhibited cell growth in a dose dependent manner
- cell morphology (A 172 cells): changes in morphology, indicative of cellular differentiation
- cell morphology (U 87 cells): changes in morphology, indicative of cellular differentiation
- anti-metastatic activity (A 172 glial cells): anti metastatic activity
- anti-metastatic activity (U 87 glial cells): anti metastatic activity
- protein expression (glial cell lines): inhibition protein expression
- toxicity in tissues of lung, liver, and brain (rats [1]): no toxicity
- maximum dose tolerated (rats [2]): 2,5%
